“Also recorded” adds a separate entry of the source.
How the values were obtained:
high fat diet (HFD) rats = assay: 8-week (56 day) treatment study in high fat diet rats with pair-fed controls (body weight, food intake, adipose tissue, liver TAG, adipokines); assay type: in vivo, rat; details: for liver triglyceride / triacylglycerol content: 8 weeks, all dose groups; for body weight: HFD rats, 0.625-10 μg/kg/day, 8 weeks (56 days), vs vehicle and pair-fed
Method: (§1) To obtain obese rats, male Sprague-Dawley rats aged 12 weeks were placed on a diet consisting of regular rodent chow and a 60 kcal % high-fat diet (no. D12495; Research Diets) for a total of 12 wk. Following the 12 weeks on high fat diet the rats were randomized into treatment groups based on weight.
The second study consisted of the following groups: vehicle, KBP-042 0.625 μg/kg/day, KBP-042 1.25 μg/kg/day, KBP-042 2.5 μg/kg/day, KBP-042 5 μg/kg/day, KBP-042 10 μg/kg/day, pair-fed (calorie restriction) matching the 5 μg/kg/day and pair-fed (calorie restriction) matching the 10 μg/kg/day, to allow assessment of the effect of KBP-042 on bodyweight independent of its effect on food intake.
Throughout the experiment the bodyweight and food intake were monitored, and at termination liver and fat depots were collected for weighing and potential analysis of triglyceride content.
(§2) The method is based on Folch et al. At the time of extraction the samples were portioned at 500 mg individually and transferred to glass tubes, followed by the addition of 10 mL 100 μg/mL butylated hydroxytoluene (BHT) in chloroform:methanol 2:1 (v:v), and placed on ice. Each sample was added 150 μL of the internal standard solution. Homogenization was performed using a rotor-stator submersion blender (IKA Ultra-Turrax T25) with the sample tubes submerged in ice-water. The samples were each homogenized for 3×10 seconds with 50 second intervals, where after the homogenate is transferred to 35 mL screw-cap centrifuge tubes. The aggregate was cleaned in 5 mL chloroform:methanol 2:1 in the original glass tube, which was then transferred quantitatively to the homogenate. The homogenate was added 3 mL (0.24 times the total homogenate volume) of 0.73% (w/v) NaCl in MiliQ H2O and mixed, followed by centrifugation at 2800·g for 5 minutes at 4° C., to create a 2-phase system. The lower phase was transferred to a clean 12.5 mL centrifugation tube. The homogenate (the upper phase) was then added 3 mL chloroform:methanol 85:15 and mixed, followed by another centrifugation step. The new lower phase was then isolated and added to the first extract and dried down under nitrogen in a 40° C. water bath, followed by resolubilization in 300 μL chloroform:methanol 2:1. At this point the lipid extracts can be stored at −20° C.
(§3) The lipid extracts were fractionated on amino-propyl columns (Phenomenex Strata NH2, product number: 8B-S009-HBJ). The columns were pre-washed with 2×2 mL chloroform:methanol 23:1 (v:v) and left to dry. During fractionation the columns were not allowed to dry. The columns were primed with 2×1 mL hexane followed by application of the lipid extracts. Fraction 1 containing cholesterol esters was eluted with 3 mL Hexane into a clean tube. Fraction 2 containing TAG was eluted using 3 mL hexane:chloroform:ethylacetate 100:5:5 (v:v:v) into a clean tube. Fraction 3 containing DAG, Cholesterol and Ceramide was eluted using 3×2 mL chloroform:methanol 23:1 (v:v) into a new glass. Fraction 4 containing FFA was eluted using 5 mL 2% acetic acid in diethyl ether into a new glass. Fraction 5 containing PL was eluted using 4 mL methanol into a new glass. Fractions 1 and 2 were dried down under nitrogen at 40° C. and re-dissolved in 300 μL chloroform:methanol 95:5 and stored at −20° C. Fraction 4 and half of fraction 5 (fraction 5A) were dried down under nitrogen at 40° C. and re-dissolved in 300 μL chloroform:methanol 2:1 and stored at −20° C. Fraction 3 was equally dried down and re-dissolved in 135 μL chloroform and 67.5 μL isopropanol, transferred to HPLC vials and stored at −20° C. The other half of fraction (fraction 5B) was dried down under nitrogen and re-dissolved in 200 μL chloroform:isopropanol 1:1 (v:v), transferred to HPLC vials and stored at −20° C.
To allow gas chromatographic analysis of the fatty acids they must be converted to the more volatile Fatty Acid Methyl Ester (FAME) form. […]

obese rats = assay: 16-day treatment study in obese rats (bodyweight, food intake, fat depots, liver lipid analysis); assay type: in vivo, rat; details: 16 days; for liver arachidonic acid / liver free fatty acids / liver triacylglycerols: extracted liver tissue, 7.5 μg/kg/day
Method: Two studies were conducted, and in both studies the obese rats used were generated as follows:
as §1
The initial study was a 16-day treatment study, in which three groups were studied: Lean (same age but no high fat diet), vehicle (obese control group), and KBP-042 at 7.5 μg/kg/day. Throughout the experiment the bodyweight and food intake were monitored, and at termination liver and fat depots were collected for weighing and potential analysis of triglyceride, free fatty acids and arachidonic acid content.
As the quantification procedure contains several steps an internal standard was added to each sample extraction, which enables the results to be normalized and correcting for any loss. The internal standard was prepared as a solution containing 3.66 mg/mL C19:0 TAG (Sigma-Aldrich, product number: T4632), 2.73 mg/mL C17:0 Phospholipid (PL), 0.4 mg/mL C19:0 FFA (Sigma-Aldrich, product number: N-8263), 0.096 mg/mL C15:0 Diacylglycerol (DAG), 0.06 mg/mL d31-tagged Ceramide, 0.03 mg/mL d7-tagged Sphingosine, 1.036 mg/mL Sitostanol, 0.04 mg/mL d31-tagged Sphingomyelin and 1.596 mg/mL C15:0 Cholesterolester in Chloroform:Methanol 2:1 (v/v).
as §2
as §3, with “Fraction 4 and half of fraction 5 (fraction 5A) were dried down under nitrogen at 40° C. and re-dissolved in 300 μL chloroform:methanol 2:1 and stored at −20° C. Fraction 3 was equally dried down and re-dissolved in 135 μL chloroform and 67.5 μL isopropanol, transferred to HPLC vials and stored at −20° C. The other half of fraction (fraction 5B) was dried down under nitrogen and re-dissolved in 200 μL chloroform:isopropanol 1:1 (v:v), transferred to HPLC vials and stored at −20° C.” left out

[1] = KBP-042 7.5 μg/kg/day, vs saline

## AcCSNLSTCVLGKLSQELHKLQTYPRTDVGANAP-NH2 (Ac-CSNLSTCVLGKLSQELHKLQTYPRTDVGANAP-NH2; not fully specified (bridges); cysteine pairing not given here) [KBP-042, calcitonin mimetic with Cys1-Cys7 disulphide bridge]
High fat diet (HFD) rats; 1.25 μg/kg, 2.5 μg/kg, 5 μg/kg and 10 μg/kg, 56 days
  plasma adiponectin levels: significantly increased
High fat diet (HFD) rats; 2.5 μg/kg, 5 μg/kg and 10 μg/kg groups compared to HFD-vehicle
  body weight at day 56: significantly lower
High fat diet (HFD) rats; 2.5 μg/kg, 5 μg/kg and 10 μg/kg, 56 days, calculated from food intake and body weight change, significantly different from pair-fed controls
  food efficiency: drastic reduction
High fat diet (HFD) rats; 10 μg/kg compared to the corresponding pair-fed control, 56 days
  plasma leptin levels: reached statistical significance
High fat diet (HFD) rats; 10 μg/kg, 56 days, vs HFD-Vehicle, pair-fed control not significant
  liver triacylglycerols (TAG): significantly reduced
High fat diet (HFD) rats; 10 μg/kg, 56 days, vs HFD-vehicle
  weight of isolated epididymal white adipose tissue: significantly reduced
High fat diet (HFD) rats; 2.5, 5 and 10 μg/kg, 56 days, vs HFD-vehicle, not seen in pair-fed controls
  weight of isolated perirenal white adipose tissue: significant reduction in size
High fat diet (HFD) rats; 8-week study, compared to vehicle, even in a pair fed experiment
  perirenal fat depot: reduced
High fat diet (HFD) rats; compared to vehicle
  liver triglyceride / triacylglycerol content: trends indicated a dose-dependent effect
High fat diet (HFD) rats; compared to vehicle, listed as KBP peptide
  liver triglyceride / triacylglycerol content: reduced
High fat diet (HFD) rats; compared to vehicle, listed as KBP-peptide
  liver triglyceride / triacylglycerol content: improvement
High fat diet (HFD) rats; 56 days
  fatty acid composition of hepatic TAG: no differences in the relative distribution
  weight of inguinal white adipose tissue: trend towards reducing
High fat diet (HFD) rats; 56 days, all doses
  plasma leptin levels: trend towards reduced levels
High fat diet (HFD) rats
  body weight: dose-dependent and sustained reduction of body weight; also recorded: large reduction in body weight and maintained weight loss for 8 weeks
High fat diet (HFD) rats; listed as KBP-peptide
  body weight: marked weight reduction even when compared to the calorie restricted groups
High fat diet (HFD) rats; first 6 days of treatment, 2.5, 5 and 10 μg/kg, transient
  food intake: large reduction in food intake
Obese rats; KBP-042 7.5 μg/kg/day, at termination
  fat depots (epididymal visceral fat): fats depots were reduced
Obese rats; [1]
  body weight: marked weight reduction
  food intake: pronounced reduction in food intake early
Obese rats
  liver arachidonic acid: reduced the levels
  liver free fatty acids: reduced
  liver triacylglycerols: reduced triacylglycerols
Obese rats; listed as KBP-peptide
  liver arachidonic acid: improvement
  liver free fatty acids: improvement
  liver triacylglycerols: improvement
